Like-named read-outs stand apart in the source and are kept apart here. Ends that are not written are not given here.
What was measured:
ACE = settings: cited from earlier work; for IC50: read-out: IC50, ACE inhibition
Text: Marine species account for about half of the world’s total biodiversity. This diversity, together with the availability of marine resources, have driven the search for new antihypertensive agents, which could be administered as functional foods or dietary supplements. Since the first discovery of a marine-derived peptide with ACE-inhibitory activity, researchers have identified a variety of antihypertensive peptides in hydrolysates from marine species, such as Synodus macrops

ACE (from rabbit lung) [1] = biological target: T1, ACE (from rabbit lung) (Oryctolagus cuniculus, UniProt P12822); assay: Stability of ACE inhibitory activity in simulated gastric and intestinal fluid; assay type: in vitro ADME; settings: read-out: ACE inhibitory activity of the control (undigested peptide)
T1 construct: ACE (from rabbit lung); purchased Sigma Chemicals Co. (St. Louis, MO, USA); host or cells: rabbit lung tissue
T1 sequence (P12822 34-1310): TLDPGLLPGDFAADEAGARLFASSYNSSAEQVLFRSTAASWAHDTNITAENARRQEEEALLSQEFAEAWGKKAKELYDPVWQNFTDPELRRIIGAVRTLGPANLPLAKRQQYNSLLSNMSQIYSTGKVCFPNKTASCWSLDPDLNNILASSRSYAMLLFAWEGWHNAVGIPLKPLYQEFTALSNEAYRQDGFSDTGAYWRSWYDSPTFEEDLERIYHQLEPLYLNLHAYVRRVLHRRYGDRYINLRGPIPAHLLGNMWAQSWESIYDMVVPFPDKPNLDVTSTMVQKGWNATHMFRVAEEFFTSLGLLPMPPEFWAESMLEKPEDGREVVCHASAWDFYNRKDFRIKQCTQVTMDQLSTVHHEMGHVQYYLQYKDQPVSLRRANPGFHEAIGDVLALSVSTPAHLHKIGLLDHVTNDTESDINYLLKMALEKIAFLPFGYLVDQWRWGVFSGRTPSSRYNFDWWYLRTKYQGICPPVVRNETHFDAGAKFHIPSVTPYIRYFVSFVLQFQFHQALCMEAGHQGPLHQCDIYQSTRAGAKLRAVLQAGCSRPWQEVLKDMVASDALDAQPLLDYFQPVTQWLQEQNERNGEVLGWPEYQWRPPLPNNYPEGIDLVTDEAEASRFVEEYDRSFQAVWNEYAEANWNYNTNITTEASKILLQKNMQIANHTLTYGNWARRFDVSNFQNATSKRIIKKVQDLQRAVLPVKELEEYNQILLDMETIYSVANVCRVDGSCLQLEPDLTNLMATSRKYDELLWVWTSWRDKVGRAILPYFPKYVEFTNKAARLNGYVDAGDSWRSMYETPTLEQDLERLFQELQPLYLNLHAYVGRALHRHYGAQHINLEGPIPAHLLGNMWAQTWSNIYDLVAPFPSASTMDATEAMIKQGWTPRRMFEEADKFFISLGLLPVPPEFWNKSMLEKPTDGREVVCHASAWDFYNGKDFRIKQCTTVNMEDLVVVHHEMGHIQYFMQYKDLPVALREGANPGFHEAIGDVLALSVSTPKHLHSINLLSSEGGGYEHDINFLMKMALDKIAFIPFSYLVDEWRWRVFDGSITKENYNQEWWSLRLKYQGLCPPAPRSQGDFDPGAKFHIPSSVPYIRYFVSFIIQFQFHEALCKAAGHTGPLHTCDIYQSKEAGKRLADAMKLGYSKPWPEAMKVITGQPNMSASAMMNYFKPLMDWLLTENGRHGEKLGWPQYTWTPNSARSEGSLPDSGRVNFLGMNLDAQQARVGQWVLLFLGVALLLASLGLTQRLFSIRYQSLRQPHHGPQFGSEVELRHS
Experimental: Simulated gastric fluid (SGF[sp]): Concentrated hydrochloric acid (37%) was diluted to a 9.5% to 10.5% solution. Then, 800 mL of water and 10 g of pepsin were added to 16.4 mL of this diluted hydrochloric acid solution, mixed well, and the volume completed to 1000 mL with water.
Simulated intestinal fluid (SIF[sp]): 6.8 g of KH2PO4 was dissolved in 500 mL of water, and the pH was adjusted to 6.8 with 0.1 M NaOH. Then ten grams of trypsin were dissolved in an appropriate amount of water, added to the solution described above, and diluted to 1000 mL with water.
The in vitro stability of the ACE inhibitory peptide in the simulated gastrointestinal environments was determined according to the method described by Yu et al [68]. […] (0.5 mg/mL) and incubated for 2 h at 37.5 °C. In addition, the peptide solution was first incubated with SGF[sp] at 37.5 °C for 2 h, the solvent was removed by means of a centrifugal filter concentrator, and was then incubated with SIF[sp] for 2 h. The reaction mixtures were then boiled to inactivate the enzyme. After cooling to room temperature, samples were centrifuged at −4 °C (10000 rpm, 15 min) and the supernatant was adjusted to pH = 7 for the determination of the ACE inhibitory activity.

ACE (from rabbit lung) [2] = biological target: T1, ACE (from rabbit lung); assay: ACE inhibitory activity (HHL substrate, HPLC of hippuric acid); assay type: biochemical; settings: synthetic peptide, 37.5 °C 1 h, HPLC 228 nm, read-out: IC50 value, ACE inhibition
Text: Trypsin (from bovine pancreas, 200 U/mg) and pepsin (from porcine gastric mucosa, 300 U/mg) were purchased from YTHX Biotechnology Co., Ltd. (Beijing, China). ACE (from rabbit lung), and the ACE synthetic substrate hippuryl-L-histidyl-L-leucine (HHL) were purchased from Sigma Chemicals Co. (St. Louis, MO, USA). Other chemicals and reagents used were of analytical grade, except acetonitrile and trifluoroacetic acid (TFA), which were HPLC grade (Sinopharm Chemical Reagent Co., Ltd, Shanghai, China).
To determine the ACE inhibitory activity, we used the method described by D.W.Cushman and Lisete Paiva, with slight modifications. Briefly, 120 μL of 5 mM HHL solution and 20 μL of 1 mg/mL sample solution were mixed thoroughly and pre-incubated for 5 min at 37.5 °C. The control was prepared by replacing the sample solution with 20 μL of 300 mM NaCl in 100 mM borate buffer (pH 8.3). Then, 10 μL of ACE (0.1 U/mL) solution was added, tubes were mixed well, and incubated at 37.5 °C for 1 h in a water bath. […] The reaction solutions were then filtered through a 0.45 μm microporous membrane and quantified by using a ZORBAX SB-C18 analytical column (4.6 mm × 250 mm, 5 μm, 25 °C) and an Agilent HPLC ChemStation, consisting of a G1311C quaternary pump VL, a G1329B standard autosampler, a G1316A column oven, and a G1314F variable wavelength detector. […] Hippuric acid (HA) was detected at 228 nm. […]

[3] = from scorpion (Hemiscorpius lepturus) venom

## AFPYYGHHLG
ACE; [3]
  ACE inhibition mode: competitive

## AGPPGSDGQPGAK [antihypertensive peptide from Synodus macrops hydrolysate]
ACE; peptide from Synodus macrops
  IC50: 420 µM

## Arg-Tyr-Leu [RYL]
ACE; from Silkworm Pupa
  ACE inhibition mode: competitive

## IGPR [antihypertensive peptide from Salmo salar]
ACE; peptides from Salmo salar
  IC50: 430 µM

## SSSKAKKMP [antihypertensive peptide from shrimps]
ACE; peptide from shrimps
  IC50: 880 µM

## Tyr-Gln-Lys [YQK]
ACE; from bovine casein
  ACE inhibition mode: competitive

## VVSLSIPR
ACE; from pigeon pea (Cajanus cajan)
  ACE inhibition mode: competitive

## WPMGF [WPMGF, Trp-Pro-Met-Gly-Phe]
ACE (from rabbit lung) [1]
  inhibition at 500 µg/mL: 51.5 ± 0.72%
ACE (from rabbit lung) [2]
  IC50: 789 µM

## YLYELAR [YLYELAR]
ACE; [3]
  ACE inhibition mode: competitive

— publication PMC6265983, “Identification and Molecular Docking Study of a Novel Angiotensin-I Converting Enzyme Inhibitory Peptide Derived from Enzymatic Hydrolysates of Cyclina sinensis” (Marine Drugs, 2018)
